Among the data in patent US9675596B2, “1,2,4-thiazolidin-3-one derivatives and their use in the treatment of cancer” (Baltic Bio AB, priority 2009, dated 2017) are activity values, retold here.

The first test deals with PC-3 cells. Kind of test: Cell proliferation assay (BrdU incorporation). The test is classed as cell-based. The conditions noted are these: Homo sapiens, serum-free, 1.25 μM, relative to vehicle control (1 unit), 18 h + 6 h BrdU, read-out: Units of BrdU incorporation. The protocol: PC-3 cancer cell lines were propagated in D-MEM (Gibco 21885) supplemented with 10% Foetal calf serum. 15000 cells per well were seeded in 96 well plates and incubated overnight. The culture media was changed to serum-free D-MEM for 24 h. The culture media was then changed to serum free D-MEM containing either 0.2% DMSO as vehicle control or 0.3, 0.6, 1.2 or 2.5 μM (or 1.25, 2.5, 5, 10 μM (as indicated in Table 1 below)) of the selected compounds of Example 1 to Example 8 in 0.2% DMSO in quadruplicate. After 18 h incubation, BrdU was added according to manufacturer's recommendations. After 6 h incubation in the presence of BrdU, the culture media was removed and BrdU incorporation was measured using “Cell Proliferation ELISA, BrdU colorimetric” Roche (11647229001) according to manufacturer's recommendations.
Proliferation rate of PC-3 cells are reduced by relevant concentrations of the test compounds as measured by BrdU incorporation.
On the technique in general: Incorporation of labelled thymidine or its analogues reports DNA synthesis.
As for `O=c1nc(Nc2ccc(Cl)c(Cl)c2)sn1Cc1ccc(F)c(F)c1` [Example 8c, 1,5-(3,4-dichlorophenylamino)-2-(3,4-difluorobenzyl)-[1,2,4]thiadiazol-3-one], the activity at 1.25 µM turned out to be 7%.
In the case of `O=c1[nH]s/c(=N\c2ccc(Cl)c(Cl)c2)n1C(c1ccccc1)c1ccccc1` [Example 6, 4-Benzhydryl-5-(3,4-dichlorophenyl)imino-1,2,4-thiadiazolidin-3-one], the activity at 1.25 µM turned out to be 42%.

The test is the same for the next values; noted with them: Homo sapiens, serum-free, 2.5 μM, relative to vehicle control (1 unit), 18 h + 6 h BrdU, read-out: Units of BrdU incorporation.
On to `O=C(Nc1nc(=O)n(Cc2ccc(F)cc2)s1)c1ccc(OC(F)(F)F)cc1` [Example 4n, N-[2-[(4-fluorophenyl)methyl]-3-oxo-1,2,4-thiadiazol-5-yl]-4-(trifluoromethoxy)-benzamide], for which the activity at 2.5 µM is 17%.
`O=c1nc(Nc2ccc(Cl)c(Cl)c2)sn1Cc1ccc(Cl)cc1` [Example 8b, 1,5-(3,4-dichlorophenylamino)-2-(4-chlorobenzyl)-[1,2,4]thiadiazol-3-one]: the activity at 2.5 µM worked out at 18%.
On the same count and under the same terms, the value for `COc1ccc(Cn2sc(Nc3ccc(Cl)c(Cl)c3)nc2=O)cc1` [Example 8a, 1,5-(3,4-Dichlorophenylamino)-2-(4-methoxybenzyl)-[1,2,4]thiadiazol-3-one] was 4%.

Still in this test, the particulars now being: Homo sapiens, serum-free, 5 μM, relative to vehicle control (1 unit), 18 h + 6 h BrdU, read-out: Units of BrdU incorporation.
For the compound `O=c1[nH]s/c(=N\c2ccc(Cl)c(Cl)c2)n1Cc1ccccc1` [Example 2e], the activity at 5 µM came out at 17%.
As for `O=c1nc(Nc2ccc(Cl)c(Cl)c2)sn1CCc1ccccc1` [Example 8f, 5-(3,4-dichlorophenylamino)-2-phenethyl-[1,2,4]thiadiazol-3-one], the activity at 5 µM came out at 8%.
For `O=c1nc(Nc2ccc(OC(F)(F)F)cc2)sn1Cc1ccc(F)c(F)c1` [Example 8l, 2-[(3,4-difluorophenyl)methyl]-5-[[4-(trifluoromethoxy)phenyl]amino]-1,2,4-thiadiazol-3-one], the activity at 5 µM is 10%.
The same measure, in the same setting: the value for `O=c1nc(Nc2ccc(C(F)(F)F)cc2)sn1Cc1ccc(Cl)cc1` [Example 8p, 2-[(4-chlorophenyl)methyl]-5-[[4-(trifluoromethyl)phenyl]amino]-1,2,4-thiadiazol-3-one] was 7%; that for `O=c1nc(Nc2ccc(C(F)(F)F)cc2)sn1CCc1ccccc1` [Example 8r, 2-[phenylethyl]-5-[[4-(trifluoromethyl)phenyl]amino]-1,2,4-thiadiazol-3-one] was 58%; that for `O=c1nc(Nc2ccc(C(F)(F)F)cc2)sn1Cc1ccc(F)c(F)c1` [Example 8k, 2-[(3,4-difluorophenyl)methyl]-5-[[4-(trifluoromethyl)phenyl]amino]-1,2,4-thiadiazol-3-one] was 4%.
With `N#Cc1ccc(Nc2nc(=O)n(Cc3ccc(F)c(F)c3)s2)cc1` [Example 8w, 4-[[2-[(3,4-difluorophenyl)methyl]-3-oxo-1,2,4-thiadiazol-5-yl]amino]benzonitrile], the activity at 5 µM turned out to be 28%.
With `O=c1nc(Nc2ccc(C(F)(F)F)cc2)sn1Cc1cccc(F)c1` [Example 8q, 2-[(3-fluorophenyl)methyl]-5-[[4-(trifluoromethyl)phenyl]amino]-1,2,4-thiadiazol-3-one], the activity at 5 µM was determined as 15%.
Turning to `O=C(Nc1nc(=O)n(C2(c3ccc(F)cc3)CC2)s1)c1ccc(Cl)c(Cl)c1` [Example 4i, 3,4-dichloro-N-[2-[1-(4-fluorophenyl)cyclopropyl]-3-oxo-1,2,4-thiadiazol-5-yl]benzamide], the activity at 5 µM came out at 10%.

Staying with this test, now noted: Homo sapiens, serum-free, 10 μM, relative to vehicle control (1 unit), 18 h + 6 h BrdU, read-out: Units of BrdU incorporation.
`O=C(Nc1nc(=O)n(Cc2ccc(F)c(F)c2)s1)c1ccc(Cl)cc1` [Example 4c, 4-chloro-N-[2-[(3,4-difluorophenyl)methyl]-3-oxo-1,2,4-thiadiazol-5-yl]benzamide]: the activity at 10 µM came to 39.3%.
As for `O=c1nc(Nc2ccc(Cl)c(Cl)c2)sn1CCOc1ccccc1` [Example 5b, 5-(3,4-Dichloro-phenylamino)-2-(2-phenoxy-ethyl)-[1,2,4]thiadiazol-3-one], the activity at 10 µM came to 14%.
Consider `O=C(Nc1nc(=O)n(Cc2cccc(C(F)(F)F)c2)s1)c1ccc(F)cc1` [Example 4a, 4-fluoro-N-[3-oxo-2-[[3-(trifluoromethyl)phenyl]methyl]-1,2,4-thiadiazol-5-yl]benzamide], for which the activity at 10 µM stood at 30.9%.
In the case of `O=C(Nc1nc(=O)n(Cc2ccc(F)cc2)s1)c1cc(C(F)(F)F)cc(C(F)(F)F)c1` [Example 4o, N-[2-[(4-fluorophenyl)methyl]-3-oxo-1,2,4-thiadiazol-5-yl]-3,5-bis(trifluoromethyl)-benzamide], the activity at 10 µM was 28%.
On to `O=C(Nc1nc(=O)n(Cc2ccc(F)cc2)s1)c1ccc(Cl)cc1` [Example 4d, 4-chloro-N-[2-[(4-fluorophenyl)methyl]-3-oxo-1,2,4-thiadiazol-5-yl]benzamide], for which the activity at 10 µM came out at 61.2%.
As to `O=C(Nc1nc(=O)n(Cc2ccc(F)cc2)s1)c1ccc(F)c(F)c1` [Example 4p, 3,4-difluoro-N-[2-[(4-fluorophenyl)methyl]-3-oxo-1,2,4-thiadiazol-5-yl]benzamide], the activity at 10 µM is 26%.
The same measure, in the same setting: then `O=c1[nH]s/c(=N\c2ccc(Cl)c(Cl)c2)n1CCOc1ccccc1` [Example 5a, 5-(3,4-dichlorophenyl)imino-4-(2-phenoxyethyl)-1,2,4-thiadiazolidin-3-one], with 37%; and `O=C(Cc1ccc(F)cc1)Nc1nc(=O)n(Cc2cccc(C(F)(F)F)c2)s1` [Example 4b, 2-(4-fluorophenyl)-N-[3-oxo-2-[[3-(trifluoromethyl)phenyl]methyl]-1,2,4-thiadiazol-5-yl]acetamide], with 72%.
`O=C(Nc1nc(=O)n(Cc2ccc(F)cc2)s1)c1c(Cl)cccc1Cl` [Example 4l, 2,6-dichloro-N-[2-[(4-fluorophenyl)methyl]-3-oxo-1,2,4-thiadiazol-5-yl]benzamide]: the activity at 10 µM amounted to 20%.
As to `CN(CCn1c(=O)[nH]s/c1=N\c1ccc(Cl)c(Cl)c1)c1ccc(Cl)cc1` [Example 2g, 4-[2-[(4-chlorophenyl)-methyl-amino]ethyl]-5-(3,4-dichlorophenyl)imino-1,2,4-thiadiazolidin-3-one], the activity at 10 µM is 14%.
With `O=C(Nc1nc(=O)n(Cc2ccc(Cl)cc2)s1)c1ccc(Cl)cc1` [Example 4e, 4-chloro-N-[2-[(4-chlorophenyl)methyl]-3-oxo-1,2,4-thiadiazol-5-yl]benzamide], the activity at 10 µM is 35.5%.
Regarding `O=C(Nc1nc(=O)n(Cc2cccc(C(F)(F)F)c2)s1)c1ccccc1` [Example 3, N-[3-oxo-2-[[3-(trifluoromethyl)phenyl]methyl]-1,2,4-thiadiazol-5-yl]benzamide], the activity at 10 µM is 70%.
Take `O=C(Nc1nc(=O)n(Cc2ccc(F)cc2)s1)c1ccc(Cl)cc1Cl` [Example 4m, 2,4-dichloro-N-[2-[(4-fluorophenyl)methyl]-3-oxo-1,2,4-thiadiazol-5-yl]benzamide]: the activity at 10 µM amounted to 23%.
